Experimental data from US11814444B2, “Cyclic polypeptides for PCSK9 inhibition” (Ra Pharmaceuticals, Inc., priority 2018, dated 2023).
Numbered stars: 1 amine (or outer) side, 2 acyl side, 3 side chain; on linkers, the order of the positions; unused ones are H or OH. Bridge positions count the residues as written; N and C are the ends. Square brackets hold non-standard residues; d marks the D form. Peptide text beside a SMILES is read from it. X3 = O=C([C@@H]1C[C@@H](SCc2ccc(C[*:3])cc2)CN1[*:1])[*:2]; Pyridine(2,6-diCH2) = c1cc(C[*:1])nc(C[*:2])c1; Trp(5-F) = N[C@@H](Cc1c[nH]c2ccc(F)cc12)C(=O)O; Trp(7-aza) = N[C@@H](Cc1c[nH]c2ncccc12)C(=O)O; Phe(4-F) = N[C@@H](Cc1ccc(F)cc1)C(=O)O; 1Nal = N[C@@H](Cc1cccc2ccccc12)C(=O)O; X5 = O=C([C@H](Cc1cnco1)N[*:1])[*:2]; mXylylene = c1cc(C[*:1])cc(C[*:2])c1; NH(CH2)5NH = C(CCN[*:1])CCN[*:2]; 4Pal = N[C@@H](Cc1ccncc1)C(=O)O; NMeE = CN[C@@H](CCC(=O)O)C(=O)O; Aad = N[C@@H](CCCC(=O)O)C(=O)O; Pen = CC(C)(S)[C@H](N)C(=O)O; Tle = CC(C)(C)[C@H](N)C(=O)O; αMeV = CC(C)[C@](C)(N)C(=O)O; S5 = C=CCCC[C@](C)(N)C(=O)O; Ac5c = NC1(C(=O)O)CCCC1; Nva = CCC[C@H](N)C(=O)O; Thp = NC1(C(=O)O)CCOCC1; Aib = CC(C)(N)C(=O)O; Mpa = O=C(O)CCS

How the values were obtained:
[1] = target: human PCSK9 / human LDLR EGFa domain interaction (Homo sapiens, UniProt Q8NBP7); experiment: TR-FRET assay of inhibition of the PCSK9-LDLR protein-protein interaction; assay type: binding; conditions: 20 nM avitag-biotinylated human PCSK9, 20 nM his-tagged human LDLR EGFa domain, 2 hours, room temperature
How it was run: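 Compounds in dose-response are mixed with 20 nM human PCSK9 (avitag-biotinylated) and 20 nM his-tagged LDLR EGFa domain, plus 5 nM each streptavidin-Ulight and Eu-anti-6×His. After 2 h at room temperature in HEPES/NaCl/CaCl2 buffer with BSA and P20, TR-FRET is read and IC50 fitted (4-parameter).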

PCSK9 = PCSK9 (Homo sapiens, UniProt Q8NBP7); experiment: PCSK9 Alexa FRET Standard assay (displacement of AlexaFluor647 tagged cyclic peptide Reagent A); assay type: binding; conditions: 0.5 nM PCSK9, 20 nM AF cyclic peptide Reagent A
How it was run: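 TR-FRET displacement: 0.5 nM biotinylated PCSK9 with 1.25 nM Strep-Eu and 20 nM AlexaFluor-tagged cyclic peptide (final) in 50 mM HEPES pH 7.4, 0.15 M NaCl, 5 mM CaCl2, 0.01% BSA, 0.01% P20, ≥2 h at room temperature. IC50 from sigmoidal fit, converted to Ki via peptide KD; falling Eu counts flagged false positives.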

Sequence of human PCSK9 / human LDLR EGFa domain interaction (Q8NBP7 153-692): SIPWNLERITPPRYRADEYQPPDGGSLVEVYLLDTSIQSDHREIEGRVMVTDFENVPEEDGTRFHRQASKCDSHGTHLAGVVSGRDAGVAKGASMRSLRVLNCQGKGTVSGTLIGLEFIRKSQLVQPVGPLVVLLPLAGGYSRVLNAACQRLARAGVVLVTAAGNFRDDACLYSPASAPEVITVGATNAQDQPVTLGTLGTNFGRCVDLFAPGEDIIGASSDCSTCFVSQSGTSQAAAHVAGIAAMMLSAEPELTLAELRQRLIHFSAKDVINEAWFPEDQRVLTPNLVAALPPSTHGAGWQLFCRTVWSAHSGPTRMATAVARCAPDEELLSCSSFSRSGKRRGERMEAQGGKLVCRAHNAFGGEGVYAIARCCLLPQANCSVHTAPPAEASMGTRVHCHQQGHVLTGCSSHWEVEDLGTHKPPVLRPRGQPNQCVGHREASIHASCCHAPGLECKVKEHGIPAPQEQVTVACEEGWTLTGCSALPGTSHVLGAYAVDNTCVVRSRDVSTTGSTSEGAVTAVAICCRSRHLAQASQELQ
Sequence of human PCSK9 / human LDLR EGFa domain interaction (Q8NBP7 31-152 partner limits assumed): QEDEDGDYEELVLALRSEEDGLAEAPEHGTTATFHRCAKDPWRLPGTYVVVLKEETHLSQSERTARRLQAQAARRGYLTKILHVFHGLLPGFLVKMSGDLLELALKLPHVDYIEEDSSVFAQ
Sequence of PCSK9 (Q8NBP7 153-692): as the sequence (Q8NBP7 153-692) above

| IC50 [1] [nM] | IC50 (PCSK9) [nM] | Structure (SMILES) |
| --- | --- | --- |
| 100 to 1000 | 1000 to 21000 | CCC[C@@H]1NC(=O)[C@H](Cc2c[nH]c3ncccc23)NC(=O)[C@H]([C@@H](C)O)NC(=O)[C@H](Cc2c[nH]cn2)NC(=O)[C@H](Cc2ccc(O)cc2)NC(=O)[C@H](C(C)(C)C)NC(=O)CCSCc2cccc(c2)CSC[C@@H](C(N)=O)NC(=O)[C@H]([C@@H](C)O)NC(=O)[C@H](CCC)NC(=O)[C@H](Cc2ccc(O)cc2)NC(=O)[C@H](CCCC(=O)O)NC1=O [Compound 259] ([Mpa][Tle]YHT[Trp(7-aza)][Nva][Aad]Y[Nva]TC-NH2; linker 1-12 via mXylylene) |
| 100 to 1000 | 1000 to 21000 | CCC[C@@H]1NC(=O)[C@H](Cc2ccc(O)cc2)NC(=O)[C@H](CCC(=O)O)NC(=O)[C@H](Cc2ccc(F)cc2)NC(=O)[C@H](Cc2c[nH]c3ncccc23)NC(=O)[C@H]([C@@H](C)O)NC(=O)[C@H](Cc2c[nH]cn2)NC(=O)[C@H](Cc2ccc(O)cc2)NC(=O)[C@H](C(C)(C)C)NC(=O)CCSCc2cccc(c2)CSC[C@@H](C(N)=O)NC(=O)[C@H]([C@@H](C)O)NC1=O [Compound 265] ([Mpa][Tle]YHT[Trp(7-aza)][Phe(4-F)]EY[Nva]TC-NH2; linker 1-12 via mXylylene) |
| 100 to 1000 | 1000 to 21000 | CCC[C@@H]1NC(=O)[C@H](Cc2c[nH]c3ccc(F)cc23)NC(=O)[C@H]([C@@H](C)O)NC(=O)[C@H](Cc2c[nH]cn2)NC(=O)[C@H](Cc2ccc(O)cc2)NC(=O)[C@H](C(C)(C)C)NC(=O)CCSCc2cccc(c2)CSC[C@@H](C(N)=O)NC(=O)[C@H]([C@@H](C)O)NC(=O)[C@H](CCC)NC(=O)[C@H](Cc2ccc(O)cc2)NC(=O)[C@H](CCC(=O)O)NC1=O [Compound 263] ([Mpa][Tle]YHT[Trp(5-F)][Nva]EY[Nva]TC-NH2; linker 1-12 via mXylylene) |
| 100 to 1000 | 1000 to 21000 | CCC[C@@H]1NC(=O)[C@H](Cc2c[nH]c3ncccc23)NC(=O)[C@H]([C@@H](C)O)NC(=O)[C@H](Cc2c[nH]cn2)NC(=O)[C@H](Cc2ccc(O)cc2)NC(=O)[C@H](C(C)(C)C)NC(=O)[C@@H](NC(C)=O)CSCc2cccc(c2)CSC[C@@H](C(N)=O)NC(=O)[C@H]([C@@H](C)O)NC(=O)[C@H](CCC)NC(=O)[C@H](Cc2ccc(O)cc2)NC(=O)[C@H](CCC(=O)O)NC1=O [Compound 235] (Ac-C[Tle]YHT[Trp(7-aza)][Nva]EY[Nva]TC-NH2; linker 1-12 via mXylylene) |
| 100 to 1000 | 1000 to 21000 | CCC[C@@H]1NC(=O)[C@H](Cc2c[nH]c3ncccc23)NC(=O)[C@H]([C@@H](C)O)NC(=O)[C@H](Cc2c[nH]cn2)NC(=O)[C@H](Cc2ccc(O)cc2)NC(=O)[C@H](C(C)(C)C)NC(=O)CCSCc2cccc(c2)CSC[C@@H](C(N)=O)NC(=O)[C@H]([C@@H](C)O)NC(=O)[C@H](CCC)NC(=O)[C@H](Cc2ccc(O)cc2)NC(=O)[C@H](CC(=O)O)NC1=O [Compound 254] ([Mpa][Tle]YHT[Trp(7-aza)][Nva]DY[Nva]TC-NH2; linker 1-12 via mXylylene) |
| 1 to 100 | 1 to 100 | CC(=O)N[C@H]1CCCCNC(=O)CCC[C@@H](C(N)=O)NC(=O)[C@H]([C@@H](C)O)NC(=O)[C@](C)(C(C)C)NC(=O)[C@H](Cc2ccc(O)cc2)NC(=O)[C@H](C)NC(=O)C(C)(C)NC(=O)[C@H](Cc2c[nH]c3ncccc23)NC(=O)[C@H]([C@@H](C)O)NC(=O)[C@@H]2C[C@@H]3CN2C(=O)[C@H](Cc2ccc(O)cc2)NC(=O)[C@@H](NC1=O)C(C)(C)SCc1ccc(cc1)CS3 [Compound 349] (Ac-K[Pen]Y[X3]T[Trp(7-aza)][Aib]AY[αMeV]T[Aad]-NH2; lactam 1-12; thioether 2-4) |
| 100 to 1000 | 1000 to 21000 | CCC[C@@H]1NC(=O)[C@H](Cc2ccc(O)cc2)NC(=O)[C@H](CCC(=O)O)NC(=O)[C@H](CCC)NC(=O)[C@H](Cc2c[nH]c3ncccc23)NC(=O)[C@H]([C@@H](C)O)NC(=O)[C@H](Cc2c[nH]cn2)NC(=O)[C@H](Cc2ccc(O)cc2)NC(=O)[C@H](C(C)(C)C)NC(=O)CCSCc2cccc(c2)CSC[C@@H](C(N)=O)NC(=O)[C@H](Cc2c[nH]cn2)NC1=O [Compound 247] ([Mpa][Tle]YHT[Trp(7-aza)][Nva]EY[Nva]HC-NH2; linker 1-12 via mXylylene) |
| 100 to 1000 | 100 to 1000 | CCC[C@@H]1NC(=O)[C@H](Cc2ccc(O)cc2)NC(=O)[C@H](C)NC(=O)[C@]2(C)CCC/C=C/CCC[C@](C)(NC1=O)C(=O)NCCCCCNC(=O)CCC[C@H](NC(C)=O)C(=O)N[C@@H](C(C)(C)C)C(=O)N[C@@H](Cc1ccc(O)cc1)C(=O)N1CCC[C@H]1C(=O)N[C@@H]([C@@H](C)O)C(=O)N[C@@H](Cc1cccc3ccccc13)C(=O)N2 [Compound 347] (Ac-[Aad][Tle]YPT[1Nal][S5]AY[Nva][S5]; linker 1-C via NH(CH2)5NH; staple (E) 7-11) |

The remaining lines, values behind:

| Structure (SMILES) | IC50 [1] [nM] | IC50 (PCSK9) [nM] |
| --- | --- | --- |
| CC(=O)N[C@H]1CSCc2cccc(c2)CSC[C@@H](C(N)=O)NC(=O)[C@H]([C@@H](C)O)NC(=O)[C@](C)(C(C)C)NC(=O)[C@H](Cc2ccc(O)cc2)NC(=O)[C@H](C)NC(=O)C2(CCOCC2)NC(=O)[C@H](Cc2c[nH]c3ncccc23)NC(=O)[C@H]([C@@H](C)O)NC(=O)[C@@H]2CCCN2C(=O)[C@H](Cc2ccc(O)cc2)NC(=O)[C@H](C(C)(C)C)NC1=O [Compound 181] (Ac-C[Tle]YPT[Trp(7-aza)][Thp]AY[αMeV]TC-NH2; linker 1-12 via mXylylene) | 21000 to 50000 | 1000 to 21000 |
| CC(=O)N[C@H]1CSCc2cccc(c2)CSC[C@H](C(N)=O)NC(=O)[C@H]([C@@H](C)O)NC(=O)[C@](C)(C(C)C)NC(=O)[C@H](Cc2ccc(O)cc2)NC(=O)[C@H](C)NC(=O)C2(CCCC2)NC(=O)[C@H](Cc2c[nH]c3ncccc23)NC(=O)[C@H]([C@@H](C)O)NC(=O)[C@@H]2CCCN2C(=O)[C@H](Cc2ccc(O)cc2)NC(=O)[C@H](C(C)(C)C)NC1=O [Compound 186] (Ac-C[Tle]YPT[Trp(7-aza)][Ac5c]AY[αMeV]T[dC]-NH2; linker 1-12 via mXylylene) | 1 to 100 | 1 to 100 |
| CC(=O)N[C@H]1CSCc2cccc(c2)CSC[C@@H](C(N)=O)NC(=O)[C@H]([C@@H](C)O)NC(=O)[C@](C)(C(C)C)NC(=O)[C@H](Cc2ccc(O)cc2)NC(=O)[C@H](C)NC(=O)C2(CCCC2)NC(=O)[C@H](Cc2c[nH]c3ncccc23)NC(=O)[C@H]([C@@H](C)O)NC(=O)[C@@H]2CCCN2C(=O)[C@H](Cc2ccc(O)cc2)NC(=O)[C@H](C(C)(C)C)NC1=O [Compound 184] (Ac-C[Tle]YPT[Trp(7-aza)][Ac5c]AY[αMeV]TC-NH2; linker 1-12 via mXylylene) | 100 to 1000 | 1 to 100 |
| CCC[C@@H]1NC(=O)[C@H](Cc2c[nH]c3ncccc23)NC(=O)[C@H]([C@@H](C)O)NC(=O)[C@H](Cc2ccncc2)NC(=O)[C@H](Cc2ccc(O)cc2)NC(=O)[C@H](C(C)(C)C)NC(=O)CCSCc2cccc(c2)CSC[C@@H](C(N)=O)NC(=O)[C@H]([C@@H](C)O)NC(=O)[C@H](CCC)NC(=O)[C@H](Cc2ccc(O)cc2)NC(=O)[C@H](CCC(=O)O)NC1=O [Compound 112] ([Mpa][Tle]Y[4Pal]T[Trp(7-aza)][Nva]EY[Nva]TC-NH2; linker 1-12 via mXylylene) | 100 to 1000 | 100 to 1000 |
| C=CCCC[C@]1(C)NC(=O)[C@H](CCC)NC(=O)[C@H](Cc2ccc(O)cc2)NC(=O)[C@H](C)NC(=O)C(C)(C)NC(=O)[C@H](Cc2c[nH]c3ncccc23)NC(=O)[C@H]([C@@H](C)O)NC(=O)[C@@H]2CCCN2C(=O)[C@H](Cc2ccc(O)cc2)NC(=O)[C@H](C(C)(C)C)NC(=O)[C@@H](NC(C)=O)CCCC(=O)NCCCC[C@@H](C(N)=O)NC1=O [Compound 053] (Ac-[Aad][Tle]YPT[Trp(7-aza)][Aib]AY[Nva][S5]K-NH2; lactam 1-12) | 21000 to 50000 | 1000 to 21000 |
| CCC[C@@H]1NC(=O)[C@H](Cc2ccc(O)cc2)NC(=O)[C@H](CCC(=O)O)N(C)C(=O)[C@H](CCC)NC(=O)[C@H](Cc2c[nH]c3ncccc23)NC(=O)[C@H]([C@@H](C)O)NC(=O)[C@H](Cc2c[nH]cn2)NC(=O)[C@H](Cc2ccc(O)cc2)NC(=O)[C@H](C(C)(C)C)NC(=O)CCSCc2cccc(c2)CSC[C@@H](C(N)=O)NC(=O)[C@H]([C@@H](C)O)NC1=O [Compound 208] ([Mpa][Tle]YHT[Trp(7-aza)][Nva][NMeE]Y[Nva]TC-NH2; linker 1-12 via mXylylene) | 50000 to 100000 | 50000 to 100000 |
| CCC[C@H](NC(=O)[C@@H](NC(=O)[C@@H](NC(=O)[C@H](Cc1ccc(O)cc1)NC(=O)[C@@H]1CSCc2cccc(n2)CSC[C@H](NC(=O)[C@@H](NC(=O)[C@H](CCC)NC(=O)[C@H](CCCCN)NC(C)=O)[C@@H](C)CC)C(=O)N[C@@H](Cc2ccc(O)cc2)C(=O)NCC(=O)NCC(=O)N[C@@H](CC(=O)O)C(=O)N1)[C@@H](C)CC)[C@@H](C)CC)C(N)=O [Compound 055] (Ac-K[Nva]ICYGGDCYII[Nva]-NH2; linker 4-9 via Pyridine(2,6-diCH2)) | 100 to 1000 | 1 to 100 |
| CCC[C@@H]1NC(=O)[C@H](Cc2c[nH]c3ncccc23)NC(=O)[C@H]([C@@H](C)O)NC(=O)[C@H](Cc2cnco2)NC(=O)[C@H](Cc2ccc(O)cc2)NC(=O)[C@H](C(C)(C)C)NC(=O)CCSCc2cccc(c2)CSC[C@@H](C(N)=O)NC(=O)[C@H]([C@@H](C)O)NC(=O)[C@H](CCC)NC(=O)[C@H](Cc2ccc(O)cc2)NC(=O)[C@H](CCC(=O)O)NC1=O [Compound 106] ([Mpa][Tle]Y[X5]T[Trp(7-aza)][Nva]EY[Nva]TC-NH2; linker 1-12 via mXylylene) | 100 to 1000 | 1000 to 21000 |
